Assays:
urinary bladder = format: in vivo; conditions: chronic CYP 75 mg kg^−1 i.p. three times every third day
Experimental: CYP was administered to the animals by the intraperitoneal (i.p.) route (5 ml kg^−1) at the dosage of 75 mg kg^−1 for three times every third day to elicit chronic bladder irritation, as previously described ([Vizzard et al., 1996]).
Animals pre-treated with the vehicle or a single high oral dose of DF2755A (20 mg kg^−1; 12 h before the first CYP administration) followed by repeated lower doses administration (7 mg kg^−1 twice daily for 7 days) during IC development were deeply anesthetized with isoflurane (4%) and then killed.
After killing, rat abdomen was opened through a midline incision, and bladder and proximal urethra were exposed. A catheter was inserted into the bladder through the urethra and a loose ligature was placed around the neck of the urinary bladder. Bladder was inflated with saline via the catheter to slightly distend the bladder and ligature was tightened to maintain proper distension. Bladder was then excised cutting above the insertion point of ureters, and therefore the bladder neck was not included into the bladder sample. Bladders were opened using scissors and, after gross macroscopic evaluation and weighing, each bladder was cut into two equal pieces (named B1 and B2) and weighted again individually. One piece (B1) was placed in Eppendorf, then snap-frozen in liquid nitrogen, and stored at −80°C until quantification using ELISA assay. The second piece (B2) was placed in 10% formalin and stored at room temperature. Then the same samples were placed in 70% ethanol, then processed in paraffin blocks, and then trimmed according to the longitudinal plane to ensure the correct analysis of all the bladder sample. Sections were stained with hematoxylin and eosin (HE), and slides were then digitalized using a Pathscan® Touch scanner in the bright field mode with a ×20 objective. For the microscopic observations of bladder inflammation, the following parameters were analyzed: bladder edema in scores (n = 10/group), bladder hemorrhage in scores (n = 10/group), urothelial loss in scores (n = 10/group), and total inflammatory score, which was calculated by adding all the individual lesion scores (n = 10/group).

F11 cells = assay: F11 cell viability (CellTiter AQueous One); format: cell-based; conditions: differentiated F11 cells, 24 h, 5 to 200 nM
Experimental: (§1) For these experiments, cells at 18th passage were used.
[…] Cell viability was determined using the colorimetric method CellTiter AQueous One Solution Cell Proliferation Assay (Promega Corporation, United States), as previously reported ([Brandolini et al., 2017]). The quantity of formed formazan, as a function of viability, was measured at 492 nm using an ELISA plate reader, Infinite F200 (Tecan, Männedorf, Swiss). The results from five independent experiments were expressed as absorbance at 492 nm.

TRPV1 [1] = assay: TRPV1 mRNA expression in F11 cells (RT PCR); format: cell-based; conditions: CYP 100 nM alone
Source text: as §1
(§2) Triplicate samples were run for each gene.

TRPV1 [2] = assay: TRPV1 protein level in F11 cells (Western blotting); format: cell-based; conditions: CYP 100 nM alone
Source text: as §1, §2
Control and treated F11 cells were collected and lysed in an ice-cold RIPA buffer containing protease and phosphatase inhibitor cocktail (Sigma-Aldrich, United States). The extracted proteins were quantified using BCA assay (Thermo, United States). NuPAGE lithium dodecyl sulfate sample buffer (Cat#NP007, Thermo, United States) and NuPAGE sample reducing agent (Cat#NP0004, Thermo, United States) were added to the samples and then put in the Thermoblock (Eppendorf, United Kingdom) at 75°C for 10 min. Protein lysates (30 μg) were separated on NuPAGE bis–tris glycine gradient precast gel (Cat#NP0321PK2, Invitrogen, United States) and electroblotted on a PVDF membrane (Cat#IPVH00010, Millipore, United States) using a semi-dry system (Thermo, United States). Non-specific binding sites were blocked by blocking solution (Cat#000105, Invitrogen, United States) for 15 min at RT. […] The relative densities of the immunoreactive bands were determined and normalized with respect to actin, using Fiji software. […]

CXCL1 = CXCL1 mRNA expression in F11 cells (RT PCR); format: cell-based; conditions: CYP 100 nM alone
Source text: as §1, §2

CXCR1 = CXCR1 mRNA expression in F11 cells (RT PCR); format: cell-based; conditions: CYP 100 nM alone
Source text: as §1, §2

CXCR2 = CXCR2 mRNA expression in F11 cells (RT PCR); format: cell-based; conditions: CYP 100 nM alone
Source text: as §1, §2

TRPV4 = conditions: F11 cells, CYP 100 nM alone
Experimental: F11 hybridoma cell line (ECACC 08062601), chosen as a model of dorsal root ganglion (DRG) neurons ([Platika et al., 1985]; [Brandolini et al., 2017]) was cultivated in DMEM (Corning, United States) supplemented with 10% heat-inactivated FBS (Sigma-Aldrich St. Louis, CO, United States), 1% penicillin/streptomycin, and 1% glutamine (Sigma-Aldrich, United States) at 37°C, in a humidified 95% air and 5% CO2 atmosphere. For these experiments, cells at 18th passage were used. Cells were differentiated with the rat nerve growth factor (rNGF; Sigma-Aldrich, United States). rNGF was dissolved in DMEM with 1% penicillin/streptomycin and 1% glutamine (FBS free) at the final concentration of 50 ng ml^−1. Medium was replaced every 3 days until complete differentiation, which occurred after 7 days.
TRPV1 and TRPV4 mRNA expression and protein levels and CXCR1, CXCR2, and CXCL1 mRNA levels were evaluated in F11 cells exposed to CYP. […] The total RNA concentration was determined in RNAase-free water using Nanodrop, while the concentration was determined using the Qubit Fluorometer 3.0 (Thermo, United States). […] Relative expression levels were calculated for each sample after normalization against the reference gene, using the 2^−ΔΔCt method for comparing relative fold expression differences.

[3] = tested on: acute CYP-induced IC model; set-up: method as in Dornelles et al., 2014; conditions: acute CYP-induced IC rat model with inflammatory bladder infiltrate; ref Dornelles et al., 2014; cited from earlier work

SMILES | bladder hemorrhage (urinary bladder) | inflammatory infiltrate and urothelial hyperplasia in urinary bladder (urinary bladder) | bladder edema, mean score (urinary bladder; score 0–4 (Table 1)) | urothelial loss, mean score (urinary bladder; score 0–4 (Table 1)) | neuronal cell viability (F11 cells) | TRPV1 mRNA expression versus control (TRPV1 [1]) | TRPV1 protein level versus control (TRPV1 [2]) | CXCL1 mRNA expression versus control (CXCL1) | CXCR1 mRNA expression versus control (CXCR1) | CXCR2 mRNA expression versus control (CXCR2) | TRPV4 mRNA expression versus control (TRPV4) | effect on nociceptive behavior [3]
O=P1(N(CCCl)CCCl)NCCCO1 (stereo not drawn) [CYP, Cyclophosphamide, reference compound] | no hemorrhage | no inflammatory infiltrate and no urothelial hyperplasia | 0.4 ± 0.16 | 0.1 ± 0.10 | did not modulate neuronal cell viability | significantly increased | increased | significantly increased | significantly increased | significantly increased | did not change | –
O=C(Nc1ccc([N+](=O)[O-])cc1O)Nc1ccccc1Br [SB225002] | – | – | – | – | – | – | – | – | – | – | – | antinociceptive effect

— paper PMC9096165 (Frontiers in Pharmacology, 2022)
